Values joined by “and” are separate entries in the source; they are usually repeats but may differ in a detail not shown here. Equal entries are not always repeated. “Also recorded” adds a separate entry of the source. Where two headings read alike, the source gives them in different places. Non-standard residues stand in square brackets, D forms with d. No end group written: not given here.
Assays:
Format in all cases: cell-based, human
[1] = test system: hNT cells; assay: Internal calcium concentration [Ca2+]int in hNT cells (fura-2) on exposure to β-amyloid peptide or test agent alone; conditions: for effect of decoy peptide by itself on cytosolic calcium concentrations: decoy peptide alone at 20 μM, filtered stocks, Tyrode's/2 mM Ca; for [Ca^2+]int after exposure to unfiltered peptide: hNT cells in Tyr2Ca, peptide at 20 μM (βAP1-42 aggregated 37C, 24 hr), controls 80 nM and 50 nM; for % increase in [Ca^2+]int: unfiltered suspension in Tyr2Ca
[2] = test system: βAP25-35-induced calcium influx, hNT cells; assay: βAP25-35-induced calcium influx in hNT cells: effect of channel antagonists and decoy peptides; conditions: for effect on increase in internal calcium concentration due to βAP25-35: decoy peptide mixed with βAP25-35 at ratio 1:1 (20 μM+20 μM), hNT cells; for effect on βAP25-35-induced calcium influx: βAP25-35 21 μM
[3] = test system: βAP1-42-induced calcium influx, hNT cells; assay: βAP1-42 (Aβ1-42) aggregate-induced calcium influx in hNT cells: effect of decoy peptides and channel blockers
[4] = test system: hNT cells; assay: Membrane depolarization of hNT cells by aggregated Aβ1-42 (DiBAC4(3) fluorescence); conditions: for % ΔF / Δ EM: aggregated Aβ1-42 20 μM
Method: Changes in membrane potential were measured using the fluorescent potentiometric probe DiBAC4(3), (Molecular Probes, Inc., Eugene, Oreg.). This dye, bis-(1,3-dibutylbarbituric acid)trimethine oxonol, detects membrane depolarization, because it enters depolarized cells and binds to intracellular proteins or membranes. […] Hyperpolarization results in extrusion of the anionic dye and thus a decrease in fluorescence. Our measurements use two dyes, fura-2 and DiBAC4(3), since these dyes have excitation wavelengths that are far apart, but have similar emission wavelengths. DiBAC4(3) was added to fura-2AM loaded hNT cells at a concentration of 100 nM in Tyr2Ca. Rapidly alternating measurements of fura-2 (excited at 340 & 380 nm) and DiBAC4(3) (excited at 490 nm) were performed using emission at 516 nm. Both dyes were measured using the special “Fura2-Fluo3” filter set 7400 from Chroma Technology (Brattleboro, Vt.), a Zeiss Axiovert 100 inverted microscope and a photometry system (model “Delta Ram” from Photon Technology International, Inc., Monmouth Junction, N.J.).
The bis-oxonol dye DiBAC4(3) was used as an indicator of transmembrane electrical potential changes (Langheinrich and Daut, J. Physiol. 502:397-408, 1997) when our hNT cells were treated with, for example, the β-amyloid peptide Aβ1-42. The use of this dye enabled us to monitor groups of 5-15 neurons, rather than single cells as would be the case with patch clamping methods. We expected great variability from cell to cell, as was found in our earlier patch clamp work (Sanderson et al., Brain Res. 744:7-14, 1997). The method has been used by many laboratories for the determination of membrane potentials in different cell types. Fluorescence is increased upon membrane depolarization as more dye enters the cytosol, resulting in increased binding to proteins (Braiuner et al., Biochim. Biophys. Acta 771:[…], 1984). Partitioning of bis-oxonol dye between the plasma membrane and the cytosol follows the Nernst equation (Langheinrich and Daut, 1997). Unless otherwise indicated, all measurements were carried out in Tyrode's solution containing 2 mM Ca.
We calibrated the gross fluorescence as a function of membrane potential by treating a culture of hNT neurons, bathed in Tyrode's 2Ca buffer with the usual 3 mM K^+, containing 97 nM DiBAC4(3), with Tyrode's 2Ca buffer containing 40 mM KCl. We measured the gross fluorescence at excitation=490 nm and emission=510 nm for the depolarization by KCl and for depolarization by the Aβ1-42 peptide. We used the formula proposed by Langheinrich and Daut, 1997: % ΔF=(1−Fmin/Fmax)*100=ΔEMmV
where Fmin=fluorescence before treatment, Fmax=fluorescence during treatment, ΔEM mV is the change in membrane potential brought about by the treatment. The calculation based on the expected depolarization by changing from 3 mM KCl to 40 MM KCl gave a value of ΔEM=3.8 mV/1% ΔF.
Groups of hNT neuronal cells (5-17) were exposed to Aβ1-42 (20 μM) that had been incubated at 37° C. for 48 hours; 97 nM DiBAC4(3) was present. Fluorescence was measured as described above; Ex=490 nm, Em=510 nm.

[5] = hNT cells, aggregated Aβ1-42 in Tyrode's medium without calcium

“^+NH3.A.G.V.I.S.I.G.G.G (AGVISIGGG; not fully specified; printed as ^+NH3.A.G.V.I.S.I.G.G.G) [DP7]” was tested, and the “effect of decoy peptide by itself on cytosolic calcium concentrations” value (“effect … on cytosolic calcium concentrations” below) ([1]; hNT cells) was “raise cytosolic calcium concentrations somewhat” and the “effect on increase in internal calcium concentration due to βAP25-35” value [2] was “reduced or abolished the increase in the internal calcium concentration”.
With `NC1=N[C@H](O)[C@H]2[C@H]3O[C@]4(O)O[C@@H]([C@@H](O)[C@@]2(N1)[C@@H]4O)[C@]3(O)CO` [TTX, tetrodotoxin] the “effect on rise in cytosolic calcium caused by aggregated Aβ1-42” value [3] was “allowed both membrane depolarization and a rise in cytosolic calcium levels; also recorded: the rise in cytosolic calcium”, the “% ΔF in presence of addition” value [4] was 17.3% and the “effect on membrane depolarization by aggregated Aβ1-42” value [4] was “allowed both membrane depolarization and a rise in cytosolic calcium levels; also recorded: allows both membrane depolarization”. For the same compound, the “Δ EM in presence of addition” value [4] was “+65.7 mV”.
With “^+NH3.T.G.I.I.A.S.G.G.G. (H-[dT]G[dI][dI][dA][dS]GGG) [DP4]” the “effect … on cytosolic calcium concentrations” value ([1]; hNT cells) was “no effect on cytosolic calcium concentrations” and the “effect on increase in internal calcium concentration due to βAP25-35” value [2] was “reduced or abolished the increase in the internal calcium concentration”.
In the case of “βAP1-42: β-amyloid peptide, SEQ ID NO:20, purchased from Quality Controlled Biochemicals”, the “% ΔF” value ([4]; [Ca^2+] 0 mM, Na^+) is reported as 51.1%, the “% ΔF” value ([4]; [Ca^2+] 0.4 mM, Na^+) is reported as 8.3% and the “Δ EM” value ([4]; [Ca^2+] 0.4 mM, Na^+) is reported as “+31.6 mV”. For the same compound, the “% ΔF” value ([4]; [Ca^2+] 2 mM, ext. cation NMDG^+) was 44.1%, the “% ΔF” value ([4]; [Ca^2+] 2 mM, ext. cation Na^+, no addition) was 15.7% and 14.8% and the “% ΔF” value ([4]; [Ca^2+] 2 mM, ext. cation TEA^+) was 44.8%. For the same compound, the “% ΔF” value ([4]; [Ca^2+] 10 mM, Na^+) was 15.3%, the “Δ EM” value ([4]; [Ca^2+] 10 mM, Na^+) was “+58.3 mV” and the “membrane depolarization caused by pre-aggregated Aβ1-42” value ([4]; cultured hNT neuronal cells, Tyrode's/2Ca) was “large membrane depolarization”. For the same compound, the “membrane depolarization with external Na^+ replaced” value ([4]; external Na^+ replaced with equal concentration of TEA^+ or NMDG^+) was “large membrane depolarization”, the “membrane depolarization without external calcium” value [4, 5] was “greatly increased membrane depolarization” and the “calcium influx by Aβ1-42 not incubated at 37° C.” value ([1]; Aβ1-42 sample not incubated (protofibrils)) was “did not produce the characteristic calcium influx”. For the same compound, the “[Ca^2+]int after exposure to unfiltered peptide” value [1] was “approximately 94 nM”, the “cytosolic calcium level after spontaneous desensitization” value ([1]; hNT cells, aggregated Aβ1-42) was ~200 % of control and the “new plateau calcium level relative to control values” ([1]; hNT cells, aggregated Aβ1-42, other experiments with longer time) was “about twofold”. For the same compound, the “rise in cytosolic calcium without external calcium” value [1, 5] was “almost no rise in cytosolic calcium”, the “cytosolic calcium upon addition of aggregated Aβ1-42” value ([1]; hNT cells, fura-2, Tyrode's/2Ca) was “large increase in cytosolic calcium” and the “concentration dependence of calcium influx” value ([1]; hNT cells, increasing βAP1-42 concentration) was “strong concentration dependence”.
“^+NH3.T.T.I.V.S.T.G.G.G (H-[dT][dT][dI][dV][dS][dT]GGG) [DP6]” was tested, and the “effect … on cytosolic calcium concentrations” value ([1]; hNT cells) was “raise cytosolic calcium concentrations somewhat” and the “effect on increase in internal calcium concentration due to βAP25-35” value [2] was “reduced or abolished the increase in the internal calcium concentration”.
In the case of `O=c1[nH]c2cc([N+](=O)[O-])c([N+](=O)[O-])cc2[nH]c1=O` [DNQX, 6,7-dinitroquinoxaline-2,3(1H, 4H)-dione], the “effect on βAP25-35-induced calcium influx” value ([2]; DNQX at 8 μM, applied together) is reported as “completely prevented”.
For “^+NH3-TVIGTIGGG-CONH2 (H-[dT][dV][dI]G[dT][dI]GGG-NH2; SMILES CC[C@@H](C)[C@@H](NC(=O)[C@H](NC(=O)[C@H](N)[C@H](C)O)C(C)C)C(=O)NCC(=O)N[C@@H](C(=O)N[C@@H](C(=O)NCC(=O)NCC(=O)NCC(N)=O)[C@H](C)CC)[C@H](C)O) [DP3]”, the “effect … on cytosolic calcium concentrations” value ([1]; hNT cells) was “raise cytosolic calcium concentrations somewhat”, the “effect of unfiltered decoy peptide alone on [Ca^2+]int” value ([1]; hNT cells, unfiltered DP3 at 20 μM) was “an increase in [Ca^2+]int” and the “effect on calcium influx when decoy peptide added prior to βAP25-35 aggregation” value ([2]; DP3 in Tyrode's/2 mM Ca for 1 hour, then βAP25-35 added, both 20 mM [sic]) was “reduced the calcium influx induced by βAP25-35; also recorded: can reduce the βAP25-35-induced Ca^2+ influx”. For the same compound, the “effect on increase in internal calcium concentration due to βAP25-35” value [2] was “reduced or abolished the increase in the internal calcium concentration”, the “effect on ability of βAP25-35 to induce influx of calcium” value ([2]; unfiltered DP3 mixed with βAP25-35 at molar ratios of 1:2 or greater) was “marked decrease in the ability of βAP25-35 to induce influx of calcium” and the “effect on calcium influx when decoy peptide added after βAP25-35 aggregation” value ([2]; βAP25-35 aggregated 2 hours before DP3 addition, both 20 mM [sic]) was “did not reduce the induction of calcium influx”.
`NC(CCCP(=O)(O)O)C(=O)O` (racemic) [DL-AP5, DL-2-amino-5-phosphonovaleric acid] was tested, and the “block of calcium influx into hNT neuronal cells caused by βAP25-35” value ([2]; concentration not stated) was “lack of blocking effect”, the “effect on βAP25-35-induced calcium influx” value ([2]; DL-AP5 at 50 μM) was “failed to prevent” and the “effect on βAP25-35-induced calcium influx” value ([2]; DL-AP5 at 200 μM) was “failed to prevent”.
In the case of `[Cl-].[Cl-].[Mg+2]` [magnesium chloride], the “block of calcium influx into hNT neuronal cells caused by βAP25-35” value [2] is reported as “blocks the influx of Ca^2+; also recorded: can be blocked” and the “effect on βAP25-35-induced influx of calcium” value [2] is reported as “totally blocked”.
GSNKGAIIGLM [βAP25-35] was tested, and the “[Ca^2+]int after exposure to unfiltered peptide” value [1] was “approximately 200 nM”, the “internal calcium concentration after restoring external calcium to 2 mM without extra peptide” value ([1]; hNT cells previously exposed to 50 μM βAP25-35 in Tyrode's/0 mM Ca) was ~200 % of control levels and the “[Ca^2+]int relative to control” value ([1]; hNT cells, 21 μM βAP25-35, single experiment, 4 cells) was 270 % of control. For the same compound, the “internal calcium in external Tyrode's solution without calcium” value ([1]; hNT cells, Tyrode's/0 mM Ca plus 50 μM βAP25-35, even after 15 minutes) was “no increase in internal calcium”, the “% increase in [Ca^2+]int” value ([1]; hNT cells, [βAP25-35] 10 μM) was 170 ± 85% and the “% increase in [Ca^2+]int” value ([1]; hNT cells, [βAP25-35] 20 μM) was 286 ± 179%. For the same compound, the “% increase in [Ca^2+]int” value ([1]; hNT cells, [βAP25-35] 50 μM) was 343 ± 245%, the “% increase in [Ca^2+]int” value ([1]; hNT cells, [βAP25-35] 130 μM) was 623 ± 555% and the “% increase in [Ca^2+]int” value ([1]; hNT cells, [βAP25-35] 172 μM) was 367 ± 108%. The “% increase in [Ca^2+]int” value ([1]; hNT cells, [βAP25-35] 334 μM) was 508 ± 561% and the “% increase in [Ca^2+]int” value ([1]; hNT cells, [βAP25-35] 112-114 μM) was 366 ± 260%.
For `NC(CO)(CO)CO` [TRIS^+, Tromethamine], the “effect on membrane depolarization by aggregated Aβ1-42” value ([4]; hNT cells, 10 mM TRIS^+) was “moderate decrease in membrane depolarization; also recorded: partially blocks membrane depolarization”.
`O=C(O)CN(CCOCCOCCN(CC(=O)O)CC(=O)O)CC(=O)O` [EGTA] was tested, and the “internal calcium with chelator in external solution in addition to βAP25-35” value ([2]; 20 mM EGTA in addition to βAP25-35 peptide) was “decreased internal calcium to control levels”.
With `[Cl][Al]([Cl])[Cl]` [AlCl3] the “calcium influx induced by agent by itself” value ([1]; hNT neuronal cells, from external calcium sources) was “powerfully induces calcium influx”.
For “^+NH3.P.V.P.R^+.P.I.P.A.P.COO^− (H-[dP][dV][dP][dR][dP][dI][dP][dA][dP]-OH; also: modified) [DP17]”, the “effect on βAP1-42 calcium influx” value ([3]; βAP1-42 25 μM coincubated with equimolar decoy peptide at 37° C. for 44 hours, hNT cells) was “did not reduce the effect of βAP1-42 on the calcium influx”.

— patent US6942963B1, “Methods for identifying treatments for neurotoxicity in Alzheimer's disease caused by β-amyloid peptides” (Massachusetts Institute of Technology, priority 1997, dated 2005)
